Tests used:
[1] = target: Mitogen-activated protein kinase kinase kinase 6 (Homo sapiens) (UniProt O95382); conditions: Compound concentration 1000.0 nM
[2] = tested on: Epidermal growth factor receptor (Homo sapiens), P00533 [G719C]; conditions: Compound concentration 1000.0 nM
[3] = target: Serine/threonine-protein kinase MRCK beta (Homo sapiens) (UniProt Q9Y5S2); conditions: Compound concentration 1000.0 nM
[4] = target: T1, Tyrosine-protein kinase ITK/TSK (Homo sapiens) (UniProt Q08881); conditions: Compound concentration 1000.0 nM
T1 sequence (whole entry): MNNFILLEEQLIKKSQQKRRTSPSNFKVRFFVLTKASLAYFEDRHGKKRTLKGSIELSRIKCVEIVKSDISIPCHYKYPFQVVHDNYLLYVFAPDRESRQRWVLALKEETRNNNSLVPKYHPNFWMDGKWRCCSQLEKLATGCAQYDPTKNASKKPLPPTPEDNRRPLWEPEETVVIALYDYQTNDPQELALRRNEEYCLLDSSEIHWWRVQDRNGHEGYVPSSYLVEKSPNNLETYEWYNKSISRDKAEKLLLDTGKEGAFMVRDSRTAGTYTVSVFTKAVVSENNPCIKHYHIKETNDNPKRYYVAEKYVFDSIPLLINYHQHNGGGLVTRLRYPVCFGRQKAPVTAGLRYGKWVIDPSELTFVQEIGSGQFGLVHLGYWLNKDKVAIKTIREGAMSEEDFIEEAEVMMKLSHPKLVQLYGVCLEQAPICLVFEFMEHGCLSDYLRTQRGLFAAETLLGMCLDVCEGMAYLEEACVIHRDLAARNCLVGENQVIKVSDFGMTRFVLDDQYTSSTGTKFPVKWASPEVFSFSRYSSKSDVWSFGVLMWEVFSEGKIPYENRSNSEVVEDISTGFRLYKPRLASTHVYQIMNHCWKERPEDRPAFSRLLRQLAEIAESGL

[5] = tested on: Mast/stem cell growth factor receptor Kit (Homo sapiens), P10721 [V559D,T670I]; conditions: Compound concentration 1000.0 nM
[6] = tested on: eIF-2-alpha kinase GCN2 (Homo sapiens), Q9P2K8 [S808G]; conditions: Compound concentration 1000.0 nM
[7] = tested on: Epidermal growth factor receptor (Homo sapiens), P00533 [G719S]; conditions: Compound concentration 1000.0 nM
[8] = target: Insulin receptor-related protein (Homo sapiens) (UniProt P14616); conditions: Compound concentration 1000.0 nM
[9] = target: T2, NUAK family SNF1-like kinase 2 (Homo sapiens) (UniProt Q9H093); conditions: Compound concentration 1000.0 nM
T2 sequence (whole entry): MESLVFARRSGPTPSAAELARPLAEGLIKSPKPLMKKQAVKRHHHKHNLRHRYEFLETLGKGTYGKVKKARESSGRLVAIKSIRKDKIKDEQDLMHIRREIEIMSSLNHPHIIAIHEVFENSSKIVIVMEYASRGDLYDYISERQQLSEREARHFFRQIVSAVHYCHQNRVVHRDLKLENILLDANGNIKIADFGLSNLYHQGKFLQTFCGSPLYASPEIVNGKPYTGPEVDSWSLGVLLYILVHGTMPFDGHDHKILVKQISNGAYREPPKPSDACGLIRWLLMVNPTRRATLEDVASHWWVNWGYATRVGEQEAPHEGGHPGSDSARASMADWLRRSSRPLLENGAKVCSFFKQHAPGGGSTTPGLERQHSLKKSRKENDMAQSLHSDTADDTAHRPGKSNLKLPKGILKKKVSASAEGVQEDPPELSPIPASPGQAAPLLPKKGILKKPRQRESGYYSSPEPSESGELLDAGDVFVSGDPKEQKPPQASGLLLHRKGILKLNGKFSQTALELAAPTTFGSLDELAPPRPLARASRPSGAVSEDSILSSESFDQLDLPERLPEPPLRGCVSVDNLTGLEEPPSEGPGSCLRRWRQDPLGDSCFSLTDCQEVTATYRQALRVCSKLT

[10] = target: Serine/threonine-protein kinase PAK 1 (Homo sapiens) (UniProt Q13153); conditions: Compound concentration 1000.0 nM
[11] = target: Serine/threonine-protein kinase Chk2 (Homo sapiens) (UniProt O96017); conditions: Compound concentration 1000.0 nM
[12] = target: 5-hydroxytryptamine receptor 1B (Homo sapiens) (UniProt P28222); conditions: Compound concentration 10.0 uM
[13] = target: Macrophage-stimulating protein receptor (Homo sapiens) (UniProt Q04912); conditions: Compound concentration 1000.0 nM
[14] = target: ALK tyrosine kinase receptor (Homo sapiens) (UniProt Q9UM73); conditions: Compound concentration 1000.0 nM
[15] = target: T3, Mitogen-activated protein kinase 13 (Homo sapiens) (UniProt O15264); conditions: Compound concentration 1000.0 nM
T3 sequence (whole entry): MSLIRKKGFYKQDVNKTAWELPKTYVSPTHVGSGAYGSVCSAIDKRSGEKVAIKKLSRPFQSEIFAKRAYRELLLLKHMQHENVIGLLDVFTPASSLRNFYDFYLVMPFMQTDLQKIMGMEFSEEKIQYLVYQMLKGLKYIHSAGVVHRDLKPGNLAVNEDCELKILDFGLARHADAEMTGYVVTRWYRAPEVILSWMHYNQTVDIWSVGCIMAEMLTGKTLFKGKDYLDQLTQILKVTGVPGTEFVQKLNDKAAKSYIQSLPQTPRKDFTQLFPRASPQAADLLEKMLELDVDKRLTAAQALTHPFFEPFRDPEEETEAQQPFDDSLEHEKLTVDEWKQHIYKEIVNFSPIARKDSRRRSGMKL

[16] = target: Ribosomal protein S6 kinase alpha-6 (Homo sapiens) (UniProt Q9UK32); conditions: Compound concentration 1000.0 nM
[17] = target: Sigma intracellular receptor 2 (Homo sapiens, UniProt Q5BJF2); conditions: Compound concentration 10.0 uM
[18] = target: Receptor-interacting serine/threonine-protein kinase 4 (Homo sapiens) (UniProt P57078); conditions: Compound concentration 1000.0 nM
[19] = tested on: Mast/stem cell growth factor receptor Kit (Homo sapiens), P10721 [D816V]; conditions: Compound concentration 1000.0 nM
[20] = tested on: Receptor-type tyrosine-protein kinase FLT3 (Homo sapiens), P36888 [UNDEFINED MUTATION]; conditions: Compound concentration 1000.0 nM
[21] = tested on: Mast/stem cell growth factor receptor Kit (Homo sapiens), P10721 [L576P]; conditions: Compound concentration 1000.0 nM
[22] = target: Cyclin-dependent kinase 16 (Homo sapiens) (UniProt Q00536); conditions: Compound concentration 1000.0 nM
[23] = tested on: Epidermal growth factor receptor (Homo sapiens), P00533 [T790M]; conditions: Compound concentration 1000.0 nM

Chain of Insulin receptor-related protein (Homo sapiens) (P14616 27-742 limits assumed): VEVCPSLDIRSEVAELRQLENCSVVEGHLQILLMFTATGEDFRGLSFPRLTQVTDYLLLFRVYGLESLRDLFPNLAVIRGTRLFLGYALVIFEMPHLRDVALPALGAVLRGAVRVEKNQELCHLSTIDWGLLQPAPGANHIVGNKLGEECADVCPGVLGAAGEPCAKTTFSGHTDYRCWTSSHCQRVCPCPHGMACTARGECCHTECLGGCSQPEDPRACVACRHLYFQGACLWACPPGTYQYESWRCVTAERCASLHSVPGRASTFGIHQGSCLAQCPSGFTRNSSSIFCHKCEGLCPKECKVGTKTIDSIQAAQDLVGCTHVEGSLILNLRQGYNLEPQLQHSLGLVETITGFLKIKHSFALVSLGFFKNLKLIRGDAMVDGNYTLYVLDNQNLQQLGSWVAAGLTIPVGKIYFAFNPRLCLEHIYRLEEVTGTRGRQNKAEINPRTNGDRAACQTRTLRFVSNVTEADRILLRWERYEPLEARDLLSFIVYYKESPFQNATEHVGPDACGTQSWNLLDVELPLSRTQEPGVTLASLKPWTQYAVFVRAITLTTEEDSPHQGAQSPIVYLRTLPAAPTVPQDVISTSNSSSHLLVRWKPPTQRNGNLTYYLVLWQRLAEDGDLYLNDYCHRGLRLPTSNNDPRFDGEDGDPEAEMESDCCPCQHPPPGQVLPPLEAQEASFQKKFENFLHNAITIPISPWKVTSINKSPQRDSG
Chain of Insulin receptor-related protein (Homo sapiens) (P14616 747-1297 limits assumed): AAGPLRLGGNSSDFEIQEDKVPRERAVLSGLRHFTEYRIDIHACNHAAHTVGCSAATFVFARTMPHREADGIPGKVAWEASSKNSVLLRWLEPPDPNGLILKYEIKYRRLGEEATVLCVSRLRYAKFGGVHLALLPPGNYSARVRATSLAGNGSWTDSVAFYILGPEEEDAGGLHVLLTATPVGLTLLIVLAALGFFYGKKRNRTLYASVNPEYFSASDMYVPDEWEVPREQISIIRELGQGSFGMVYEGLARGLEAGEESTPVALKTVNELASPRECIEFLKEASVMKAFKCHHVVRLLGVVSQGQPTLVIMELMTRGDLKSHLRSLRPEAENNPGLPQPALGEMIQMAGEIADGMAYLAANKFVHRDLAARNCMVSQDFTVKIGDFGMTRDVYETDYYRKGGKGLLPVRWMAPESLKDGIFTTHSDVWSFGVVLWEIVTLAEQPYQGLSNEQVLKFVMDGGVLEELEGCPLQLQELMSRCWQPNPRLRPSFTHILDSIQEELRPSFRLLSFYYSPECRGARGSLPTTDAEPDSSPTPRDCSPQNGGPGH
Chain of Cyclin-dependent kinase 16 (Homo sapiens) (Q00536 whole entry): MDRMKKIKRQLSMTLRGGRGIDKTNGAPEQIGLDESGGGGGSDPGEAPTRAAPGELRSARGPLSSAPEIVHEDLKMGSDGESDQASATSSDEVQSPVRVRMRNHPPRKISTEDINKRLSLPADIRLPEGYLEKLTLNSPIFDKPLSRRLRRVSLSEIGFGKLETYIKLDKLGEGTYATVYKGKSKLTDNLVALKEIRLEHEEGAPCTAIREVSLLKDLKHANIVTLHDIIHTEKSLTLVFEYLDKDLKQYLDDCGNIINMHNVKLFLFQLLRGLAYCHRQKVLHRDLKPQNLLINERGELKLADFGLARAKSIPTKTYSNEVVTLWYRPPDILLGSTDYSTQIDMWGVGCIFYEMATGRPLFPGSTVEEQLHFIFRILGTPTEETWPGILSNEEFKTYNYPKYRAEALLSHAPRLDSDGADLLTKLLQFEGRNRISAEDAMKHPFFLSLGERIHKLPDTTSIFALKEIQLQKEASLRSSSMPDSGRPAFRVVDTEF
Chain of ALK tyrosine kinase receptor (Homo sapiens) (Q9UM73 19-1620 limits assumed): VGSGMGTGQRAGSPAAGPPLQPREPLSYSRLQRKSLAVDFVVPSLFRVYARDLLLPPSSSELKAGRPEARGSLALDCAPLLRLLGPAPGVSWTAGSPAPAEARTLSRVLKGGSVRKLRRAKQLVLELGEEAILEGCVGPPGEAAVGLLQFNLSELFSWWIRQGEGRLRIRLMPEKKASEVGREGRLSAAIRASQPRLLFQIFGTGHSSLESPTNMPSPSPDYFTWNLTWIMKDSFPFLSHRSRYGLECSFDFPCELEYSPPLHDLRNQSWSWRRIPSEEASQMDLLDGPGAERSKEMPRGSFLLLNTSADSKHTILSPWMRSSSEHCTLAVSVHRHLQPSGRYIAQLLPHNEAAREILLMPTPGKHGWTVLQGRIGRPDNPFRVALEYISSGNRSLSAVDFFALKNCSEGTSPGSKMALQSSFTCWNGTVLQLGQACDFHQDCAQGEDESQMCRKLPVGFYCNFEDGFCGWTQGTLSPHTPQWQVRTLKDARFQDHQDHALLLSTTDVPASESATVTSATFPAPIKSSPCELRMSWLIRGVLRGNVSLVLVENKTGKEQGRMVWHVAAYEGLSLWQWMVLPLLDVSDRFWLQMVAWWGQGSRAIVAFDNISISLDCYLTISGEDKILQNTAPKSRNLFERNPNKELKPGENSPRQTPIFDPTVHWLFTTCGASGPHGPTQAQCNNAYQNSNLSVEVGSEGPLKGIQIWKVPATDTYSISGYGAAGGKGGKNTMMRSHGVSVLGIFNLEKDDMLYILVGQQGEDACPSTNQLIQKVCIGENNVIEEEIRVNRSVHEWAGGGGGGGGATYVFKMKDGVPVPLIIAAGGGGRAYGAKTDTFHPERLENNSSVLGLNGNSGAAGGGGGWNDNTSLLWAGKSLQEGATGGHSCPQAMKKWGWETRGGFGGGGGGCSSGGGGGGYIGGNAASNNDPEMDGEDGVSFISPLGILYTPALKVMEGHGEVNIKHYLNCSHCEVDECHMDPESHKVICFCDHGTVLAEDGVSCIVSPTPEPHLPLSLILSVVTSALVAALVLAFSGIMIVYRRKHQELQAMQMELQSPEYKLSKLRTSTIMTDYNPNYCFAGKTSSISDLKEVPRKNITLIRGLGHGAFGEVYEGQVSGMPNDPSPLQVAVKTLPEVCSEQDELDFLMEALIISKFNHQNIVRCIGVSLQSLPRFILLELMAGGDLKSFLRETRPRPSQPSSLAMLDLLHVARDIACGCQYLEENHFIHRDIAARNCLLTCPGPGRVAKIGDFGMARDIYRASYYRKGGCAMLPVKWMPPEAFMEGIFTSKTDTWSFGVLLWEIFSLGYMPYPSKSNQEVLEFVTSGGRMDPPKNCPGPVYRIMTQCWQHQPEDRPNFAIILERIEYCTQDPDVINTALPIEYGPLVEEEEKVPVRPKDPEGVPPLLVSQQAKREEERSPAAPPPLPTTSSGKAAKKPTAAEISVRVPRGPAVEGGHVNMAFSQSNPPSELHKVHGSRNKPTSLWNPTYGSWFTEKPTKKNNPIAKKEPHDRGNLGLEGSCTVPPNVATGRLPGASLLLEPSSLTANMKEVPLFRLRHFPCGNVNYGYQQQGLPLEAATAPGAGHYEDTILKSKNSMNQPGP
Chain of Sigma intracellular receptor 2 (Q5BJF2 whole entry): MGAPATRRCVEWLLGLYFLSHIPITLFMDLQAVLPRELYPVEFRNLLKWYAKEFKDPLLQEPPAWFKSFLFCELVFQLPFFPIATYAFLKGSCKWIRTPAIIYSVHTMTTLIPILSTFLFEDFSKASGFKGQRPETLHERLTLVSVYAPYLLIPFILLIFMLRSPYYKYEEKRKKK
Chain of Mast/stem cell growth factor receptor Kit (Homo sapiens), P10721 [D816V] (P10721 whole entry D816V): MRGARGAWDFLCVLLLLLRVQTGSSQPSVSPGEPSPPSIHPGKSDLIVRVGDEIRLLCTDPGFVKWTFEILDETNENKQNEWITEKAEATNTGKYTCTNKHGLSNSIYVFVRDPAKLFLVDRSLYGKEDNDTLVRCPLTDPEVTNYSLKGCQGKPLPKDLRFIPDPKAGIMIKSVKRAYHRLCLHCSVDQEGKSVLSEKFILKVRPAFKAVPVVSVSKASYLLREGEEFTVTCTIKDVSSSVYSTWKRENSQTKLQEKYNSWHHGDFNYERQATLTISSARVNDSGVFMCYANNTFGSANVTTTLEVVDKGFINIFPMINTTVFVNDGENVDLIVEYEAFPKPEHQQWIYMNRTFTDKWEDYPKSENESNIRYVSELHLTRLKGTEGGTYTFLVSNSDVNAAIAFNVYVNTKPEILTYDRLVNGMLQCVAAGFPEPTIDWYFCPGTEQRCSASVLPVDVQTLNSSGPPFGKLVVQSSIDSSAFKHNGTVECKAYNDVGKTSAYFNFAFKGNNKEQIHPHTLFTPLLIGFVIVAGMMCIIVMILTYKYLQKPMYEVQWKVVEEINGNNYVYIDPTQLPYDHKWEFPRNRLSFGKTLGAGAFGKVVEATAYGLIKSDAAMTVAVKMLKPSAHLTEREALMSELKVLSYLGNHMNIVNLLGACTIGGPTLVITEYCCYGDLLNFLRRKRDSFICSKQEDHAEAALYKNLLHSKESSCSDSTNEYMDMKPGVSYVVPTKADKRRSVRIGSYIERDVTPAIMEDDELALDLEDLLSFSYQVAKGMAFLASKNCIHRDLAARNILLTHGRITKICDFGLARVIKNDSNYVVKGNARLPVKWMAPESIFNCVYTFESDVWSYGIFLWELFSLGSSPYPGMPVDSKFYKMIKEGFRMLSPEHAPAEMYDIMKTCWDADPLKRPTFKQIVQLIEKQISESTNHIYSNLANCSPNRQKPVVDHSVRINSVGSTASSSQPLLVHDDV
Chain of 5-hydroxytryptamine receptor 1B (Homo sapiens) (P28222 whole entry): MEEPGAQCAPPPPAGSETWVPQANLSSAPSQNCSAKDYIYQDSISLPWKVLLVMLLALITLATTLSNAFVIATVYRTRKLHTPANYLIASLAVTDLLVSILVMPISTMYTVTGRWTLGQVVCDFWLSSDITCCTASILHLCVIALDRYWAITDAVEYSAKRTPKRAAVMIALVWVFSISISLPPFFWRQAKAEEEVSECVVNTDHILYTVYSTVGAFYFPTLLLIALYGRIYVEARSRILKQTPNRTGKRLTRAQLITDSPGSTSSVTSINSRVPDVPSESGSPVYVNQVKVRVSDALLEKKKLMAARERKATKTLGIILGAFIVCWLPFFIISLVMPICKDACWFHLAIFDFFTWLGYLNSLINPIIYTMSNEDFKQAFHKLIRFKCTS

Row | Compound | residual activity [1] [%] | residual activity [2] [%] | residual activity [3] [%] | residual activity [4] [%] | residual activity [5] [%] | residual activity [6] [%] | residual activity [7] [%] | residual activity [8] [%] | residual activity [9] [%] | residual activity [10] [%] | residual activity [11] [%] | inhibition [12] [%] | residual activity [13] [%] | residual activity [14] [%] | residual activity [15] [%] | residual activity [16] [%] | inhibition [17] [%] | residual activity [18] [%] | residual activity [19] [%] | residual activity [20] [%] | further results
1 | CN1CCN(c2cnc3c(C4CCN(C(=O)c5ccc(OC(F)(F)F)cc5N)CC4)ncnc3c2)CC1 [BAY-885] | 100 | 94 | 100 | 100 | 100 | 99 | 100 | 100 | 90 | 93 | 100 | 14.9 | 90 | 99 | 100 | 100 | 30.9 | 100 | 100 | 88 | residual activity [21]: 95%; residual activity [22]: 100%; residual activity [23]: 84%
2 | Cc1nc(C2CCN(C(=O)c3ccc(OC(F)(F)F)cc3N)CC2)c2ncc(N3CCN(C)CC3)cc2n1 [BAY-693] | 100 | 100 | 100 | 89 | 100 | 90 | 100 | 100 | 81 | 100 | 100 | 14.6 | 82 | 89 | 100 | 100 | 51.4 | 84 | 100 | 100 | residual activity [21]: 87%; residual activity [22]: 100%; residual activity [23]: 100%

Source: ChEMBL document CHEMBL4507268 (2021)
